Assay results as given in US8394794B2, “Therapeutic compounds” (Regents of The University of Minnesota, priority 2007, dated 2013).
Read-outs that look alike come from different tables or passages of the source.

Experiments:
Jurkat cells [1] = test: In vitro cytotoxicity assay (GI50) with fresh and incubated samples; type: cell-based; conditions: for increase of GI50 after incubation: 24-hour incubation in cell culture media at 37° C., FIG. 1; for loss of cytotoxicity after incubation: one hour incubation, FIG. 6
Experimental: Compound 1 (Example 2) was first evaluated for its stability under physiological conditions. In brief, compound 1 was incubated in cell culture media at 37° C. for 24 hours and the in vitro cytotoxicity was determined. HA 14-1 was run in parallel for comparison.
The stability of compound 3 (Example 1) was evaluated using the in vitro cytotoxicity assay described below.
The in vitro cytotoxicity of the test compound was assayed by determining the GI50s (the concentration of the compound required to inhibit cell growth by 50%). In brief, Jurkat cells at a density of 10^4 cells/well were plated in a 96-well plate. A series of 3-fold dilution of the test compound with 1% DMSO in the final cell media was used for the cell treatment (cells treated with media containing 1% DMSO served as a control). An identical set of the test compounds was incubated at 37° C. for the specified time and used along with freshly prepared samples for the cell-viability assay. After 24-hour treatment, the relative cell viability in each well was determined by using CellTiter-Blue Cell Viability Assay kit (a fluorescence assay that measures the reduction of a dye (resazurin) into a fluorescent end product (resorufin) by metabolically active cells—viable cells) (Promega, CA). The GI50 of each candidate was determined by fitting the relative viability of the cells to the drug concentration by using a dose-response model in GraphPad software.

Bcl-2 = target: T1, Bcl-2 (Homo sapiens, UniProt P10415); test: Fluorescence polarization (FP) competition binding assay, Bcl-2; conditions: Table 1
T1 construct: made in house
Experimental: This was done by using the FP based competition binding assay (see below).
The binding interactions of the test compound with Bcl-2, Bcl-XL and Bcl-w proteins were evaluated using the respective recombinant proteins. […] The assays were conducted via an optimized protocol established in the laboratory using a GENios Pro plate reader (Tecan US, NC) with all assays performed in triplicate, each assay performed twice (see Doshi, J. M.; Tian, D.; Xing, C. J. Med. Chem. 2006, 49, 7731).

Bcl-XL = target: T2, Bcl-XL (Homo sapiens, UniProt Q07817); test: Fluorescence polarization (FP) competition binding assay, Bcl-XL
T2 construct: made in house
Source text: (§1) With the stability improved, the mechanism of action of compound 1 was studied to determine whether compound 1 would retain the same mechanism of HA 14-1 as an antagonist against anti-apoptotic Bcl-2 proteins. Table 1 summarizes the binding interaction of compound 1 with three anti-apoptotic Bcl-2 proteins by following an established fluorescence polarization competition assay (see Doshi, J. M.; Tian, D.; Xing, C. J. Med. Chem. 2006, 49, 7731-7739).
(§2) To explore whether compound 3 functioned the same as HA 14-1 in inducing cell death, compound 3 was tested for its binding interactions with recombinant Bcl-2, Bcl-XL, and Bcl-w proteins. This was done by using the FP based competition binding assay (see below).
(§3) The binding interactions of the test compound with Bcl-2, Bcl-XL and Bcl-w proteins were evaluated using the respective recombinant proteins. The preparation of these recombinant Bcl-2 proteins and fluorescently labeled Bak peptide has been detailed previously (see Doshi, J. M.; Tian, D.; Xing, C. J. Med. Chem. 2006, 49, 7731). The assays were conducted via an optimized protocol established in the laboratory using a GENios Pro plate reader (Tecan US, NC) with all assays performed in triplicate, each assay performed twice (see Doshi, J. M.; Tian, D.; Xing, C. J. Med. Chem. 2006, 49, 7731).

Jurkat cells [2] = test: Sensitization of Jurkat cells to doxorubicin (combination cytotoxicity); type: cell-based; conditions: for synergism with doxorubicin: combination vs each alone, FIG. 4
Experimental: Finally, compound 1 was analyzed for its capability in sensitizing tumor cells to standard chemotherapies. As HA 14-1 was established to sensitize various tumor cells to doxorubicin, compound 1 was tested in parallel with HA 14-1 for the potential synergism to doxorubicin in Jurkat cells. Briefly, the cytotoxicity of doxorubicin alone, compound 1 alone, or the combination of both to Jurkat cells were evaluated. […] This study established that compound 1 can function as a chemosensitizer in combination cancer therapy. The synergism of compound 1 was further supported by the dose-response potentiation of doxorubicin (FIG. 5).

caspase-3/-7 = test: Concentration-dependent activation of caspase-3/-7 / mode of cell death; type: cell-based; conditions: 24 hours treatment; FIG. 2
Experimental: Compound 1 was further analyzed for its mechanism to inhibit cell growth as HA 14-1 does. This was characterized for concentration-dependent activation of caspase-3/-7. HA 14-1 was run in parallel for comparison. […] Mechanistically, however, compound 1 induced cell death through two different pathways depending on its concentration, similar to HA 14-1. Between 50-100 μM, compound 1 induces apoptosis as characterized by caspase-3/-7 activation. On the other hand, at >100 μM, compound 1 induced non-apoptotic cell death (no activation of caspase-3/-7). The induction of cell death through apoptosis and non-apoptotic process was further supported by DNA fragmentation studies.

[3] = HPLC analysis of decomposition in cell culture media; type: physicochemical; conditions: 48-hour incubation in cell culture media at 37° C.
[4] = tested on: Jurkat cells (normal, over-expressing Bcl-2, or over-expressing Bcl-XL); test: In vitro cytotoxicity against three Jurkat cell lines (drug resistance); type: cell-based; conditions: Jurkat normal vs Bcl-2 or Bcl-XL over-expressing; FIG. 3, FIG. 7
Experimental: Compound 1 was further studied for its capability to overcome drug resistance induced by the over-expression of anti-apoptotic Bcl-2 proteins. Specifically, the in vitro cytotoxicity of compound 1 against three Jurkat cells (normal, over-expressing Bcl-2, or over-expressing Bcl-XL) were evaluated.
The ability of compound 3 to overcome the drug resistance induced by the over-expression of anti-apoptotic Bcl-2 proteins by evaluating its cytotoxicity in Bcl-2 or Bcl-XL over-expressing Jurkat cells was also evaluated.
The in vitro cytotoxicity of the test compound was assayed by determining the GI50s (the concentration of the compound required to inhibit cell growth by 50%). In brief, Jurkat cells at a density of 10^4 cells/well were plated in a 96-well plate. A series of 3-fold dilution of the test compound with 1% DMSO in the final cell media was used for the cell treatment (cells treated with media containing 1% DMSO served as a control). An identical set of the test compounds was incubated at 37° C. for the specified time and used along with freshly prepared samples for the cell-viability assay. […]

Bcl-w = target: T3, Bcl-w (Homo sapiens, UniProt Q92843); test: Fluorescence polarization (FP) competition binding assay, Bcl-w
T3 construct: made in house
T3 sequence (Q92843 1-193): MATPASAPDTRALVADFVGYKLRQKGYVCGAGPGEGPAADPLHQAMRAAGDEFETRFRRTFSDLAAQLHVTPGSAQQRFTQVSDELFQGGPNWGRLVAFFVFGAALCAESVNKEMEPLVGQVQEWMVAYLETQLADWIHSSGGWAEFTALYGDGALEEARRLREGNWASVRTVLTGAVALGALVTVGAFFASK
Source text: as §1, §2, §3

[5] = Half-life under varying pH conditions; type: physicochemical; conditions: buffer
[6] = tested on: Jurkat cells (normal, over-expressing Bcl-2, or over-expressing Bcl-XL); conditions: Jurkat over-expressing Bcl-2 or Bcl-XL; from Doshi et al. J. Med. Chem. 2006; cited from earlier work
[7] = Table 3, mean of two independent experiments with triplicate in each, read-out: Ki ± SEM Bcl-w

T2 sequence (Q07817 whole entry, species assumed): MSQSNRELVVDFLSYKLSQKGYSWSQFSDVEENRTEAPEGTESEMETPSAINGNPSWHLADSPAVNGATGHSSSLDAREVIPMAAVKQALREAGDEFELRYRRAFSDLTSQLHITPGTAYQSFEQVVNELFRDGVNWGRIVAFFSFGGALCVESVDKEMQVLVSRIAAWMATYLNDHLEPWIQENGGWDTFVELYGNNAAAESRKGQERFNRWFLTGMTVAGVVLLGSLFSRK
T1 sequence (P10415 whole entry, species assumed): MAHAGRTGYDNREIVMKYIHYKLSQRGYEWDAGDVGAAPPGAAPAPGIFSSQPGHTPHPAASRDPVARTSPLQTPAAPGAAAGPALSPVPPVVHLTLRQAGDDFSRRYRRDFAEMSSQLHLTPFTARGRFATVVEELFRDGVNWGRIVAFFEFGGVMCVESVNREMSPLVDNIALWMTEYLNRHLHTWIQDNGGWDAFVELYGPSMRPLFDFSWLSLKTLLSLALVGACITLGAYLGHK

CCOC(=O)CC1C(C(=O)OCC)=C(N)Oc2ccc(Br)cc21 (stereo not drawn) [Compound 1, Ethyl-2-amino-6-bromo-4-(2-ethoxy-2-oxoethyl)-4H-chromene-3-carboxylate]
increase of GI50 after incubation (Jurkat cells [1]): 1.2 fold | cytotoxicity (inhibition of cell growth) compared with HA 14-1 (Jurkat cells [1]; 24 hours treatment, FIG. 2): less cytotoxic than HA 14-1 | Ki (Bcl-2): 858 µM | Ki (Bcl-XL; Table 1, read-out: Ki Bcl-XL): 390 µM | potentiation of doxorubicin (Jurkat cells [2]; 30 μM compound, FIG. 5): 1.4 fold | synergism with doxorubicin (Jurkat cells [2]): able to synergize doxorubicin | concentration inducing apoptosis (caspase-3/-7 activation) (caspase-3/-7): 50 to 100 µM | concentration inducing non-apoptotic cell death (no activation of caspase-3/-7) (caspase-3/-7): > 100 µM | decomposition by HPLC [3]: no decomposition was detected | resistance induced by over-expression of Bcl-2 or Bcl-XL [4]: induced no resistance | Ki (Bcl-w; Table 1, read-out: Ki Bcl-w): 686 µM

CCOC(=O)C1=C(N)Oc2ccc(Br)cc2C1C(C)(C#N)C(=O)OCC (stereo not drawn) [Compound 3, Ethyl-2-amino-6-bromo-4-(2-cyano-1-ethoxy-1-oxopropan-2-yl)-4H-chromene-3-carboxylate]
loss of cytotoxicity after incubation (Jurkat cells [1]): 2.5 fold | Ki (Bcl-XL; Table 3, mean of two independent experiments with triplicate in each, read-out: Ki ± SEM Bcl-XL): 55.4 ± 0.88 µM | half-life ([5]; pH 6.0): 2.75 h | resistance induced by over-expression of Bcl-2 or Bcl-XL [4]: unable to induce any noticeable resistance | Ki (Bcl-w; [7]): 49.4 ± 1.76 µM

CCOC(=O)C1=C(N)Oc2ccc(Br)cc2C1C(C#N)C(=O)OCC (stereo not drawn) [HA 14-1, reference compound]
increase of GI50 after incubation (Jurkat cells [1]): ~35 fold | loss of cytotoxicity after incubation (Jurkat cells [1]): 10 fold | Ki (Bcl-2): 169 ± 18.9 µM | Ki (Bcl-XL; Table 1, read-out: Ki Bcl-XL): 58.9 ± 5.3 µM | half-life ([5]; pH 6.0): 2.09 h | half-life ([5]; pH 7.0): 1.86 h | half-life ([5]; pH 8.0): 1.22 h | resistance induced by over-expression of Bcl-2 or Bcl-XL [6]: show no resistance | synergism with doxorubicin (Jurkat cells [2]): able to synergize doxorubicin | Ki (Bcl-w; Table 1, read-out: Ki Bcl-w): 59.3 ± 5.3 µM | Ki (Bcl-w; [7]): 59.3 ± 5.32 µM
